Values belong to the molecule of their own block, whether it stands above or below them.
What was measured:
[1] = biological target: T1, Solute carrier organic anion transporter family member 3A1 (SLCO3A1/OATP3A1) (Homo sapiens, UniProt Q9UIG8); assay: TP_TRANSPORTER: inhibition of PGE2 uptake (PGE2: 0.015 uM) by Prostaglandin E1 at 0.15uM in Xenopus laevis oocytes; assay type: functional, cell-based, Oocyte; design: scale not given: the % may be the effect or the level left; details: Xenopus laevis oocytes expressing OATP3A1 (SLCO3A1), probe PGE2, read-out: Activity
T1 sequence (Q9UIG8 whole entry): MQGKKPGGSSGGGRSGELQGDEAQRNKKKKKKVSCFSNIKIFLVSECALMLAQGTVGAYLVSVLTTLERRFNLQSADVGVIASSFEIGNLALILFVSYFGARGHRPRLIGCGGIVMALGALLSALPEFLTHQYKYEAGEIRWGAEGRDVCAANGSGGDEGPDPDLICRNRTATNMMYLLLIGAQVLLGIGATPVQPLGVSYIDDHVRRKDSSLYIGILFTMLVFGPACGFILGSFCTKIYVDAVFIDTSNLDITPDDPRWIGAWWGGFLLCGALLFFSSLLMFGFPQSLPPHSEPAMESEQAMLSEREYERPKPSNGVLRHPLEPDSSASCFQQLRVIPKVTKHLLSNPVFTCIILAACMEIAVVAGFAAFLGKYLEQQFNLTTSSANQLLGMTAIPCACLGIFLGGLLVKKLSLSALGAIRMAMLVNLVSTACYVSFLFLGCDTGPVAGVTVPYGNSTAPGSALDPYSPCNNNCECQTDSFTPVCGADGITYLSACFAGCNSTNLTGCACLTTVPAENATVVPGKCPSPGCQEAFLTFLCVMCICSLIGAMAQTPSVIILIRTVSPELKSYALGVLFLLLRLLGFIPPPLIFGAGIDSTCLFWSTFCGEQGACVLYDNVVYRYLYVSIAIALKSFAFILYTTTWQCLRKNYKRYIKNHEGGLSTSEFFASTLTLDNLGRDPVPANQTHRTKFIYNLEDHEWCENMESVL

[2] = biological target: T2, Solute carrier organic anion transporter family member 3A1 (Rattus norvegicus, UniProt Q99N02); assay: (§1) TP_TRANSPORTER: uptake in Xenopus laevis oocytes; assay type: functional, cell-based; details: oocyte
T2 sequence (Q99N02 whole entry): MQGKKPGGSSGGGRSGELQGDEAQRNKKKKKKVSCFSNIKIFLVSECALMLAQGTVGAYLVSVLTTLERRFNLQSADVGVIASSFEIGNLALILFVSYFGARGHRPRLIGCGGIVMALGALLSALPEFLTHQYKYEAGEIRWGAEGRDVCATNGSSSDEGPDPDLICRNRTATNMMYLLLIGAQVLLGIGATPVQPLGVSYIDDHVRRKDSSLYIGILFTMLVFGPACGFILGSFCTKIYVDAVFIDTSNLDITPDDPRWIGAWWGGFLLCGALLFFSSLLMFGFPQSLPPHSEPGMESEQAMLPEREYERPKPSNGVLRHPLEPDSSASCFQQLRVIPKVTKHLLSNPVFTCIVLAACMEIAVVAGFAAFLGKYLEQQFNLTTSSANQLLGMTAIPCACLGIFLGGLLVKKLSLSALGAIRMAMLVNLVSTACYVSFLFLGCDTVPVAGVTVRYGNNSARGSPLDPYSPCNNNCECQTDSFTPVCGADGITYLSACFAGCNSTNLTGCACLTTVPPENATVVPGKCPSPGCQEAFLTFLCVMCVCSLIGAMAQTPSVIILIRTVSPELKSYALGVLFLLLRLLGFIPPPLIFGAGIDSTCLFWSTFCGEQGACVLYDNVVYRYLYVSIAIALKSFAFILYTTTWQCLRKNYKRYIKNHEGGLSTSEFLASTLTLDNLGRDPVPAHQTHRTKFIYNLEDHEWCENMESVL

[3] = biological target: T1, Solute carrier organic anion transporter family member 3A1 (SLCO3A1/OATP3A1); assay: TP_TRANSPORTER: inhibition of PGE2 uptake (PGE2: 0.015 uM) by P-aminohippuric acid at 0.15uM in Xenopus laevis oocytes; assay type: functional, cell-based, Oocyte; design: scale not given: the % may be the effect or the level left; details: Xenopus laevis oocytes expressing OATP3A1 (SLCO3A1), probe PGE2, read-out: Activity
[4] = biological target: T3, Solute carrier organic anion transporter family member 3A1 (Homo sapiens, UniProt Q9UIG8); assay: TP_TRANSPORTER: inhibition of PGE2 uptake (PGE2: 0.015 uM) by Prostaglandin F2alpha at 0.15uM in Xenopus laevis oocytes; assay type: functional, cell-based; design: scale not given: the % may be the effect or the level left; details: oocyte
T3 sequence (Q9UIG8 whole entry): T1 sequence (Q9UIG8 whole entry)

[5] = biological target: T3, Solute carrier organic anion transporter family member 3A1; assay: as §1; assay type: functional, cell-based; details: oocyte
[6] = biological target: T1, Solute carrier organic anion transporter family member 3A1 (SLCO3A1/OATP3A1); assay: TP_TRANSPORTER: inhibition of PGE2 uptake (PGE2: 0.015 uM) by Prostaglandin D2 at 0.15uM in Xenopus laevis oocytes; assay type: functional, cell-based, Oocyte; design: scale not given: the % may be the effect or the level left; details: Xenopus laevis oocytes expressing OATP3A1 (SLCO3A1), probe PGE2, read-out: Activity
[7] = biological target: T3, Solute carrier organic anion transporter family member 3A1; assay: TP_TRANSPORTER: inhibition of PGE2 uptake (PGE2: 0.015 uM) by […] at 0.15uM in Xenopus laevis oocytes; assay type: functional, cell-based; design: scale not given: the % may be the effect or the level left; details: oocyte
[8] = substrate: CC/C=C\C[C@H](O)/C=C/[C@H]1[C@H](O)CC(=O)[C@@H]1C/C=C\CCCC(=O)O; assay: as §1; assay type: functional, cell-based, Oocyte
[9] = substrate: CCCCC[C@H](O)/C=C/[C@H]1[C@H](O)CC(=O)[C@@H]1CCCCCCC(=O)O; assay: as §1; assay type: functional, cell-based, Oocyte

Molecule: CCCCC[C@H](O)/C=C/[C@H]1[C@H](O)CC(=O)[C@@H]1CCCCCCC(=O)O [ALPROSTADIL]
activity at 0.15 µM [1]: 0%
Activity [2]: substrate [+]

Molecule: Nc1ccc(C(=O)NCC(=O)O)cc1 [AMINOHIPPURIC ACID]
activity at 0.15 µM [3]: 30%

Molecule: CCCCC[C@H](O)/C=C/[C@@H]1[C@@H](C/C=C\CCCC(=O)O)[C@@H](O)C[C@H]1O [DINOPROST]
Activity [4]: 0%
Activity [5]: substrate [+]
Activity [2]: substrate [+]

Molecule: CC#CCC(C)[C@H](O)/C=C/[C@@H]1[C@H]2C/C(=C/CCCC(=O)O)C[C@H]2C[C@H]1O (stereo not given in full) [ILOPROST]
Activity [5]: is not a substrate [-]

Molecule: CN(Cc1cnc2nc(N)nc(N)c2n1)c1ccc(C(=O)N[C@@H](CCC(=O)O)C(=O)O)cc1 [METHOTREXATE]
Activity [5]: is not a substrate [-]

B1: Solute carrier organic anion transporter family member 3A1 (Homo sapiens) (protein)
chain: T1 sequence (Q9UIG8 whole entry)
Km [8]: 0.0555 µM
Km [9]: 0.0485 µM

Continued, values first:

activity at 0.15 µM [6]: 30%
Activity [5]: is not a substrate [-]
Molecule: CCCCC[C@H](O)/C=C/[C@H]1C(=O)C[C@H](O)[C@@H]1C/C=C\CCCC(=O)O [PROSTAGLANDIN D2]

Activity [5]: is not a substrate [-]
Molecule: CCCCC[C@H](O)/C=C/[C@H]1OC(O)C[C@H](O)[C@@H]1C/C=C\CCCC(=O)O (stereo not given in full) [THROMBOXANE B2]

Activity [7]: 0%
Molecule: PROSTAGLANDIN E4

Activity [2]: substrate [+]
Molecule: PROSTAGLANDIN E5
